Test systems include COLO 205 colon; OVCAR-3 ovarian; SW-620 colon; MDA-MB-435; BT-549 breast; HCT-15 colon; CCRF-CEM leukemia; CAKI-1 renal; SK-OV-3 ovarian; DU-145 prostate.
What all share (assay): inhibition of tumour cell growth, NCI panel, 48 h

“And” between values parts separate entries of the source, which are not always exact repeats. Equal values may be shown once.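 Dose response: 5 concentrations. Exposure: 48 h. Format: 96-well plates. Endpoint: linear interpolation; highest concentration if not reached. At the GI50, growth is halved. The concentration for full growth arrest is given as TGI.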

The values that follow come from PubChem BioAssay (NCI).

On to `O=C1c2cccc3c([N+](=O)[O-])ccc(c23)C(=O)N1CCCCl`, for which the GI50 in the experiment with COLO 205 colon is above 10 µM; in the experiment on OVCAR-3 ovarian, 2.2 µM; in the experiment with SW-620 colon, 2.08 µM; in the experiment on MDA-MB-435, above 10 µM; in the experiment with BT-549 breast, 4.82 µM; in the experiment with HCT-15 colon, 5.01 µM. The GI50 in the experiment on CCRF-CEM leukemia was 0.489 µM; in the experiment with CAKI-1 renal, above 10 µM; with SK-OV-3 ovarian, above 10 µM; in the experiment on DU-145 prostate, 4.56 µM. Also, the TGI was above 10 µM in the experiment with COLO 205 colon; 4.72 µM in the experiment on OVCAR-3 ovarian; 5.95 µM in the experiment with SW-620 colon; above 10 µM with MDA-MB-435; above 10 µM in the experiment on BT-549 breast; above 10 µM with HCT-15 colon. For the same compound, the TGI is 3.28 µM in the experiment with CCRF-CEM leukemia, above 10 µM in the experiment with CAKI-1 renal, above 10 µM in the experiment on SK-OV-3 ovarian and above 10 µM in the experiment with DU-145 prostate.

Turning to `Cc1cc(NCCCNc2ccnc3cc(Cl)ccc23)nc(Nc2ccc(C(=O)N3CCCCC3)cc2)n1`, the GI50 in the experiment on COLO 205 colon was 1.8 µM; in the experiment on OVCAR-3 ovarian, 2.36 µM; in the experiment with SW-620 colon it was 2.12 µM; in the experiment on MDA-MB-435, 1.71 µM; with BT-549 breast, 2.31 µM; in the experiment on HCT-15 colon, 2.52 µM. The GI50 was 2.48 µM in the experiment with CCRF-CEM leukemia, 2.51 µM in the experiment on CAKI-1 renal, 3.14 µM with SK-OV-3 ovarian and 3.42 µM in the experiment on DU-145 prostate. In addition, the TGI in the experiment on COLO 205 colon is 3.62 µM; in the experiment on OVCAR-3 ovarian, 5.91 µM; in the experiment on SW-620 colon, 4.52 µM; in the experiment on MDA-MB-435, 3.2 µM; in the experiment on BT-549 breast, 5.43 µM; in the experiment with HCT-15 colon, 6.79 µM. Moreover, the TGI came out at 8.4 µM in the experiment on CCRF-CEM leukemia, 7.38 µM in the experiment with CAKI-1 renal, 8.23 µM in the experiment on SK-OV-3 ovarian and 13.1 µM in the experiment with DU-145 prostate.

For the compound `O=c1ncc(I)c[nH]1`, the GI50 in the experiment with COLO 205 colon, in the experiment on OVCAR-3 ovarian, in the experiment with SW-620 colon, in the experiment on MDA-MB-435, with BT-549 breast and in the experiment with HCT-15 colon was above 100 µM in each case. Moreover, the GI50 in the experiment with CCRF-CEM leukemia, in the experiment on CAKI-1 renal, in the experiment on SK-OV-3 ovarian and in the experiment on DU-145 prostate was above 100 µM each time. Also, the TGI in the experiment with COLO 205 colon, with OVCAR-3 ovarian, in the experiment on SW-620 colon, in the experiment with MDA-MB-435, with BT-549 breast and in the experiment on HCT-15 colon was above 100 µM throughout. The TGI with CCRF-CEM leukemia, in the experiment with CAKI-1 renal, in the experiment on SK-OV-3 ovarian and in the experiment on DU-145 prostate was above 100 µM in each case.

Consider `CC(C)C[C@H](NC(=O)[C@H](Cc1ccccc1)NC(=O)c1cnccn1)B(O)O`, for which the GI50 is 0.00284 µM in the experiment on COLO 205 colon; 0.00104 µM in the experiment on OVCAR-3 ovarian; 0.00121 µM with SW-620 colon; 0.000748 µM in the experiment on MDA-MB-435; 0.00103 µM in the experiment on BT-549 breast; 0.00237 µM in the experiment with HCT-15 colon. For the same compound, the GI50 with CCRF-CEM leukemia was < 0.01 µM and 0.00104 µM; with CAKI-1 renal it was 0.00148 µM; with SK-OV-3 ovarian, 0.0187 µM and 0.0085 µM; in the experiment on DU-145 prostate, 0.00311 µM. In addition, the TGI is 1.31 µM and 0.217 µM in the experiment with COLO 205 colon; < 0.0124 µM and 0.00238 µM in the experiment with OVCAR-3 ovarian; < 0.01 µM and 0.00186 µM with MDA-MB-435; < 0.0139 µM and 0.00341 µM in the experiment with BT-549 breast.

Regarding `CCN(CC)c1ccc(CNc2cc(C)nc3ccc(OC)cc23)cc1`, the GI50 with COLO 205 colon was 1.31 µM; in the experiment with OVCAR-3 ovarian it was 3.12 µM; in the experiment with SW-620 colon, 1.75 µM; in the experiment with MDA-MB-435, 1.67 µM; in the experiment with BT-549 breast it was 3.22 µM; with HCT-15 colon it was 3.11 µM. Besides, the GI50 was 2.78 µM in the experiment with CCRF-CEM leukemia, 1.89 µM in the experiment with CAKI-1 renal, 10.3 µM in the experiment on SK-OV-3 ovarian and 6.17 µM in the experiment on DU-145 prostate. Besides, the TGI stood at 2.76 µM in the experiment with COLO 205 colon; 12.8 µM with OVCAR-3 ovarian; 3.47 µM in the experiment on SW-620 colon; 3.38 µM in the experiment on MDA-MB-435; 10.7 µM with BT-549 breast; 10.8 µM in the experiment on HCT-15 colon. The TGI with CCRF-CEM leukemia was 10.2 µM; with CAKI-1 renal, 10.5 µM; in the experiment with SK-OV-3 ovarian, 22 µM; in the experiment on DU-145 prostate it was 18.6 µM.

With `Oc1ccccc1/C=N/Nc1nc2ccccc2s1`, the GI50 in the experiment on COLO 205 colon is 4.7 µM; with OVCAR-3 ovarian it was 2.46 µM; with SW-620 colon it was 16.3 µM; with MDA-MB-435 it was above 100 µM; with BT-549 breast it was above 100 µM; in the experiment on HCT-15 colon, 2.17 µM. In addition, the GI50 with CCRF-CEM leukemia was 4.37 µM; in the experiment on CAKI-1 renal, 2.95 µM; with SK-OV-3 ovarian it was 15.2 µM; in the experiment on DU-145 prostate, 9.35 µM. Also, the TGI was above 100 µM in the experiment on COLO 205 colon; 34.7 µM in the experiment with OVCAR-3 ovarian; above 100 µM with SW-620 colon; above 100 µM in the experiment on MDA-MB-435; above 100 µM with BT-549 breast; above 100 µM in the experiment on HCT-15 colon. Moreover, the TGI in the experiment with CCRF-CEM leukemia, in the experiment with CAKI-1 renal, in the experiment on SK-OV-3 ovarian and in the experiment on DU-145 prostate was above 100 µM in each case.

With `COc1ccc2c(c1)[n+]([O-])c(/C(C)=N/NC(N)=S)c(C)[n+]2[O-]`, the TGI was above 100 µM in the experiment on COLO 205 colon; above 95.7 µM with OVCAR-3 ovarian; above 100 µM in the experiment on SW-620 colon; above 100 µM in the experiment on MDA-MB-435; above 100 µM in the experiment with BT-549 breast; above 100 µM in the experiment with HCT-15 colon. Moreover, the TGI with CCRF-CEM leukemia, with CAKI-1 renal, with SK-OV-3 ovarian and in the experiment on DU-145 prostate was above 100 µM throughout.
